# Where two headings read alike, the source gives them in different places.
# Target: collagenase A (ColA) (Clostridium perfringens, UniProt P43153)
# Test: biochemical
# Set-up: species or system C. perfringens
# Settings: for Inhibition (%) on ColA: after 30 min of incubation
# [1] = read-out: Inhibition (%) on ColA
# [2] = read-out: Inhibition(%) on ColA
# [3] = 100 µM, preliminary screening (Table S1), * = compound precipitated due to low solubility
# [4] = 5 µM, mean ± SD of three replications
# Chain of collagenase A (ColA) (P43153 87-1104 limits assumed): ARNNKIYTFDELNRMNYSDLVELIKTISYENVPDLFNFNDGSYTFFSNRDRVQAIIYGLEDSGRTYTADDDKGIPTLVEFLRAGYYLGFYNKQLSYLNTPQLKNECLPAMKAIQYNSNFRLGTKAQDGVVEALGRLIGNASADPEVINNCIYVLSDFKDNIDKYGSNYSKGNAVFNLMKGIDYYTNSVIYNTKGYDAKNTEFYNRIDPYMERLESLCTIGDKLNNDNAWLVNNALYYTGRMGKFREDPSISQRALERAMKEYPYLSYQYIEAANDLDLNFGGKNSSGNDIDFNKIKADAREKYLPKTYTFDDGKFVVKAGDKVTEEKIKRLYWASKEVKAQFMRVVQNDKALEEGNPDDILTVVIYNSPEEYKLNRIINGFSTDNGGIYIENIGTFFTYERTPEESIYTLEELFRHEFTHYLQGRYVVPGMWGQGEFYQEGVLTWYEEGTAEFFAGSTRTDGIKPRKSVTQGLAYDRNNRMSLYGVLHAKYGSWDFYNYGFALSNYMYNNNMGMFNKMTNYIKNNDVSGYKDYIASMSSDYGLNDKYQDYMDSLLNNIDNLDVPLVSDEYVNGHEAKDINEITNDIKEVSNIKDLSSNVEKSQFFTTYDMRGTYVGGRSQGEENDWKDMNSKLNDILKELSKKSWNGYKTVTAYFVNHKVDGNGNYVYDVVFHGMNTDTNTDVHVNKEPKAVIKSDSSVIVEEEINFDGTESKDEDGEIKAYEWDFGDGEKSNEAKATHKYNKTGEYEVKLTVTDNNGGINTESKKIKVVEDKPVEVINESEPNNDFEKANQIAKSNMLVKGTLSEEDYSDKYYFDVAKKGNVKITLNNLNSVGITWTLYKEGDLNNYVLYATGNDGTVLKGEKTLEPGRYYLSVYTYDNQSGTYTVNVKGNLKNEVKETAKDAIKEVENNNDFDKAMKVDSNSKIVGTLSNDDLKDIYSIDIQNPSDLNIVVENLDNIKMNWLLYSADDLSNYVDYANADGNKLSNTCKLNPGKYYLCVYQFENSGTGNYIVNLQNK
molecule,measurement,setting,value
"NC(=O)NCCC[C@H](N)C(=O)O [Citrulline, citrulline]",inhibition at 1 µM,[1],-4.3 ± 3.5%
same,inhibition at 5 µM,[1],-14.1 ± 1.4%
same,inhibition at 10 µM,[1],27.8 ± 3%
same,inhibition at 50 µM,[1],24.3 ± 1.7%
same,inhibition at 100 µM,[1],7.2 ± 0.5%
same,inhibition at 100 µM,[2],6.8%
O=C(/C=C/c1ccc(O)c(O)c1)O[C@@H]1C[C@](O)(C(=O)O)C[C@@H](O)[C@H]1O [chlorogenic acid],inhibition at 100 µM,[2],4.8%
O=C(O)C1CCCN1S(=O)(=O)c1cccc(C(F)(F)F)c1 (stereo not drawn) [1-{[3-(trifluoromethyl)phenyl]sulfonyl}-2-pyrrolidinecarboxylic acid],inhibition at 100 µM,[2],0.7%
"COc1ccc(-c2oc3ccccc3c(=O)c2O)cc1 [4'-methoxyflavonol, 4′-methoxyflavonol]",inhibition at 100 µM,[2],3.7%
Cc1ccc(S(=O)(=O)N[C@@H](CCCNC(=N)N)C(=O)O)cc1 [nalpha-p-toluenesulfonyl-L-arginine],Inhibition (%) on ColA,[3],24.8%
COc1cc(-c2oc3cc(O)cc(O)c3c(=O)c2O)ccc1O [isorhamnetin],inhibition at 100 µM,[2],19.9%
"CC1CNc2c(cccc2S(=O)(=O)N[C@@H](CCCNC(=N)N)C(=O)N2CC[C@@H](C)C[C@@H]2C(=O)O)C1 (stereo partly drawn) [argatroban, reference compound]",inhibition at 100 µM,[2],-12.3%
COc1ccc2oc(-c3ccccc3)c(O)c(=O)c2c1 [6-methoxyflavonol],inhibition at 100 µM,[2],10.7%
"COc1ccc2[nH]c3c(c2c1)CCNC3C(=O)O (stereo not drawn) [6-methoxy-1,2,3,4-tetrahydro-9H-pyrido [3,4-b]indole-1-carboxylic acid]",inhibition at 1 µM,[1],-19.9 ± 2.7%
same,inhibition at 5 µM,[1],-1.3 ± 2.1%
same,inhibition at 10 µM,[1],-5.2 ± 0.7%
same,inhibition at 50 µM,[1],2.8 ± 1.3%
same,inhibition at 100 µM,[1],19.6 ± 3.9%
same,inhibition at 100 µM,[2],18.8%
"C[C@@H]1O[C@@H](OC[C@H]2O[C@@H](Oc3c(-c4ccc(OCCO)c(OCCO)c4)oc4cc(OCCO)cc(O)c4c3=O)[C@H](O)[C@@H](O)[C@@H]2O)[C@H](O)[C@H](O)[C@H]1O [trihydroxyethylrutin, reference compound]",Inhibition (%) on ColA,[3],1.3%
"C/C(=C(\CCOP(=O)(O)O)SC(=O)c1ccccc1)N(C=O)Cc1cnc(C)nc1N [benfotiamine, reference compound]",inhibition at 100 µM,[2],-20.4%
"C[C@H](CS)C(=O)N1CCC[C@H]1C(=O)O [captopril, reference compound]",inhibition at 100 µM,[2],5.2%
"Cl.NCCS [cysteamine hydrochloride, reference compound]",Inhibition (%) on ColA,[3],2.8%
O=c1ccc2cc(O)c(O)cc2o1 [esculetin],inhibitory effect on ColA (in words),,low effects
same,inhibition at 100 µM,[2],11.8%
"O=S(=O)(O)CCS [sodium 2-mercaptoethanesulfonate, reference compound]",inhibition at 100 µM,[2],20.6%
O=C(O)C1=C[C@@H](O)[C@@H](O)[C@H](O)C1 [shikimic acid],inhibition at 100 µM,[2],-0.2%
Cc1cc(O)c2c(c1)C(=O)c1cccc(O)c1C2=O [chrysophanol],inhibition at 100 µM,[2],-11.1%
"O=c1c(O)c(-c2cc(O)c(O)c(O)c2)oc2cc(O)cc(O)c12 [Myricetin, myricetin]",inhibitory effect on ColA (in words),,low inhibitory effect
same,inhibition at 1 µM,[1],-15.4 ± 2.7%
same,inhibition at 5 µM,[1],-4.5 ± 1.1%
same,inhibition at 10 µM,[1],-1 ± 1.1%
same,inhibition at 50 µM,[1],13.6 ± 0.6%
same,inhibition at 100 µM,[1],23.2 ± 2%
same,inhibition at 100 µM,[2],27.6%
"O=c1c(O)c(-c2ccccc2)oc2ccc(O)cc12 [3,6-dihydroxyflavone]",inhibitory effect on ColA (in words),,low inhibitory effects
same,inhibition at 100 µM,[2],2.7%
CCOC(=O)[C@H](CCCNC(=N)N)NC(=O)c1ccccc1.Cl [benzoyl-L-arginine ethyl ester hydrochloride],Inhibition (%) on ColA,[3],-6.6%
C[C@@]12C(=O)OC(=O)[C@]1(C)[C@H]1CC[C@@H]2O1 [cantharidin],inhibition at 100 µM,[2],26.8%
"Nc1ccc2c(c1N)C(=O)c1ccccc1C2=O [1,2-diaminoanthraquinone]",inhibition at 100 µM,[2],4.3%
C[C@H](N)C(=O)O [L-alanine],inhibition at 100 µM,[2],3.1%
NC(=O)NCCC[C@H](NC(=O)OCC1c2ccccc2-c2ccccc21)C(=O)O [Fmoc-L-citrulline],Inhibition (%) on ColA,[3],20.8%
c1ccc2c3c([nH]c2c1)CNCC3 [tetrahydronorharman],Inhibition (%) on ColA,[3],21.3%
O=C1c2c(O)cccc2C([C@@H]2O[C@H](CO)[C@@H](O)[C@H](O)[C@H]2O)c2cc(CO)cc(O)c21 (stereo partly drawn) [aloin],inhibition at 100 µM,[2],4.4%
COc1ccc(-c2coc3cc(OC)ccc3c2=O)cc1 [daidzein dimethyl ether],Inhibition (%) on ColA,[3],15.7%
"O=c1cc(-c2ccccc2)oc2cccc(O)c12 [Primuletin, primuletin]",inhibitory effect on ColA (in words),,low impact on the enzyme activity
same,inhibition at 1 µM,[1],-9.3 ± 1.7%
same,inhibition at 5 µM,[1],-8.8 ± 2.1%
same,inhibition at 10 µM,[1],-0.7 ± 1.3%
same,inhibition at 50 µM,[1],8.5 ± 2.1%
same,inhibition at 100 µM,[1],25.4 ± 1.8%
same,inhibition at 100 µM,[2],33.1%
O=c1c(-c2ccc(O)cc2)coc2cc(O)ccc12 [daidzein],inhibition at 100 µM,[2],5.8%
O=C(O)c1cc(O)c(O)c(O)c1 [gallic acid],inhibition at 100 µM,[2],-21.4%
Oc1cc(O)c2c(c1)O[C@H](c1ccc(O)c(O)c1)[C@H](O)C2 [epicatechin],inhibition at 100 µM,[2],3.6%
"COc1ccc(-c2coc3cc(O)cc(O)c3c2=O)cc1 [Biochanin A, biochanin A]",inhibitory effect on ColA (in words),,potent inhibitory effect
same,Inhibition (%) on ColA,"50 µM, mean ± SD of three replications",Almost complete inhibition
same,inhibition at 1 µM,[1],-24.8 ± 5.3%
same,inhibition at 5 µM,[1],23 ± 2.6%
same,inhibition at 10 µM,[1],34.1 ± 2.2%
same,inhibition at 50 µM,[1],99.1 ± 1%
same,inhibition at 100 µM,[1],76.1 ± 0.7%
same,inhibition at 100 µM,[2],57.9%
"COc1cc(/C=C/C(=O)CC(=O)/C=C/c2ccc(O)c(OC)c2)ccc1O [Curcumin, curcumin]",inhibitory effect on ColA (in words),,very potent ColA inhibitor
same,Inhibition (%) on ColA,[4],Almost complete inhibition
same,inhibition at 1 µM,[1],-10 ± 3.9%
same,inhibition at 5 µM,[1],101.8 ± 0.6%
same,inhibition at 10 µM,[1],102.5 ± 0.8%
same,inhibition at 50 µM,[1],101.5 ± 0.4%
same,inhibition at 100 µM,[1],101.8 ± 0.7%
same,inhibition at 100 µM,[2],102%
O=C(O)C=Cc1cccc(O)c1 [3-hydroxycinnamic acid],inhibition at 100 µM,[2],0.8%
"C[C@@H]1CC[C@H]2[C@@H](C)C(=O)O[C@@H]3O[C@@]4(C)CC[C@@H]1[C@]32OO4 [artemisinin, reference compound]",inhibition at 100 µM,[2],5.6%
"O=C(O)c1cc(O)c2c(c1)C(=O)c1cccc(O)c1C2=O [Rhein, rhein]",inhibitory effect on ColA (in words),,potent inhibitors of ColA
same,inhibition at 1 µM,[1],2.6 ± 0.6%
same,inhibition at 5 µM,[1],22.9 ± 2.7%
same,inhibition at 10 µM,[1],37.4 ± 3.2%
same,inhibition at 50 µM,[1],77.3 ± 2.2%
same,inhibition at 100 µM,[1],80.6 ± 1%
same,inhibition at 100 µM,[2],78.5%
myricitrin,inhibitory effect on ColA (in words),,low inhibitory effect
"O=c1c(O)c(-c2ccccc2)oc2ccccc12 [3-Hydroxyflavone, 3-hydroxyflavone]",inhibitory effect on ColA (in words),,low impact on the enzyme activity
same,inhibition at 1 µM,[1],-13.4 ± 2.7%
same,inhibition at 5 µM,[1],-17 ± 5.1%
same,inhibition at 10 µM,[1],17.4 ± 4.5%
same,inhibition at 50 µM,[1],25.1 ± 6.8%
same,inhibition at 100 µM,[1],31 ± 4.3%
same,inhibition at 100 µM,[2],27.6%
O=c1ccc2ccc(O)cc2o1 [umbelliferone],inhibition at 100 µM,[2],-10.2%
"C[C@]1(Cn2ccnn2)[C@H](C(=O)O)N2C(=O)C[C@H]2S1(=O)=O [tazobactam, reference compound]",inhibition at 100 µM,[2],18.7%
S-(acetamidomethyl)-L-cysteine,Inhibition (%) on ColA,[3],-15.2%
"COc1cc(CNC(=O)CCCC/C=C/C(C)C)ccc1O [Capsaicin, capsaicin, reference compound]",IC50 (in words),,nanomolar range
same,Inhibition (%) on ColA,"1 µM, mean ± SD of three replications, 1 µM",94.8 ± 0.8%
same,Inhibition (%) on ColA,"1 µM, mean ± SD of three replications, listed as capsaicin, 1 µM",Almost complete inhibition
same,Inhibition (%) on ColA,[4],100.5 ± 0.8%
same,Inhibition (%) on ColA,[3],87.9%
"O=C(/C=C/c1ccccc1)c1ccccc1O [2′-Hydroxychalcone, 2′-hydroxychalcone]",inhibitory effect on ColA (in words),,potent inhibitory effect
same,Inhibition (%) on ColA,"100 µM, mean ± SD of three replications (five-dose assay)",Almost complete inhibition
same,inhibition at 1 µM,[1],-12.1 ± 0.2%
same,inhibition at 5 µM,[1],1.2 ± 0.9%
same,inhibition at 10 µM,[1],6.5 ± 1.3%
same,inhibition at 50 µM,[1],21.8 ± 1.2%
same,inhibition at 100 µM,[1],97.3 ± 1.3%
same,inhibition at 100 µM,[2],87.8%
O=C1C=C(O)C(=O)c2ccccc21 [lawsone],inhibition at 100 µM,[2],-6.1%
"CC(=O)N[C@@H](CS)C(=O)O [acetylcysteine, reference compound]",inhibition at 100 µM,[2],3.4%
"CC(O)(P(=O)(O)O)P(=O)(O)O [etidronic acid, reference compound]",inhibition at 100 µM,[2],23%
"O=C(O)[C@H]1/C(=C/CO)O[C@@H]2CC(=O)N21 [potassium clavulanate, reference compound]",inhibition at 100 µM,[2],-8.1%
"O=C(O)C1NCCc2c1[nH]c1ccccc21 (stereo not drawn) [1,2,3,4-tetrahydro-beta-carboline-1-carboxylic acid]",inhibition at 100 µM,[2],1.5%
"O=C1c2ccccc2C(=O)c2c(O)ccc(O)c21 [1,4-dihydroxyanthraquinone]",inhibition at 100 µM,[2],3.2%
O=c1oc(-c2ccccc2)cc2ccccc12 [3-phenyl-1H-2-benzopyran-1-one],inhibition at 100 µM,[2],0.2%
O=c1cc(-c2ccc(O)cc2)oc2cc(O)cc(O)c12 [apigenin],inhibition at 100 µM,[2],2.7%
CC(NS(=O)(=O)c1cccc(Cl)c1)C(=O)O (racemic) [N-(3-chlorophenylsulfonyl)-DL-alanine],inhibition at 100 µM,[2],-19.2%
"COc1cc([C@@H]2c3cc4c(cc3[C@H](O)[C@H]3COC(=O)[C@H]23)OCO4)cc(OC)c1OC [podophyllotoxin, reference compound]",inhibition at 100 µM,[2],-9.7%
"CC1(C)[C@H](C(=O)O)N2C(=O)C[C@H]2S1(=O)=O [sulbactam, reference compound]",inhibition at 100 µM,[2],-10.7%
O=C(O)/C=C/c1ccc(O)c(O)c1 [caffeic acid],inhibitory effect on ColA (in words),,low effects
same,inhibition at 100 µM,[2],-3.8%
